From patent publication US4531001A, “2-β-D-ribofuranosylselenazole-4-carboxamide compounds” (priority 1983, dated 1985)
Values after ≈ are worked out from the molar mass of the structure shown. Values joined by “and” are separate entries in the source; they are usually repeats but may differ in a detail not shown here. Identical values can stand only once. “Also recorded” adds a separate entry of the source. Like-named read-outs stand apart in the source and are kept apart here.

Legend:
MRC-5 cells = test: Toxicity to MRC-5 cells; conditions: 1000 ug/ml (highest concentration tested)
Cox B1 = test: Antiviral activity (virus rating method); assay type: cell-based; conditions: for Virus Rating: >1.0 definite, 0.5-0.9 moderate, <0.5 slight or no activity; for EC50: read-out: ED50 (the source's name)
Excerpt: (§1) Microbiol. 22, 797 (1971). A virus rating that is greater than 1.0 indicates definite antiviral activity. […] The results reported below were obtained by testing on Microtest II (Falcon Plastics) plastic panels with a monolayer of Vero or HeLa cells.

Para 3 = test: Antiviral activity (virus rating method); assay type: cell-based; conditions: for Virus Rating: >1.0 definite, 0.5-0.9 moderate, <0.5 slight or no activity; for EC50: read-out: ED50 (the source's name)
Excerpt: as §1

Mumps = test: Antiviral activity (virus rating method); assay type: cell-based; conditions: for Virus Rating: >1.0 definite, 0.5-0.9 moderate, <0.5 slight or no activity; for EC50: read-out: ED50 (the source's name)
Excerpt: as §1

VV = test: Antiviral activity (virus rating method); assay type: cell-based; conditions: for Virus Rating: >1.0 definite, 0.5-0.9 moderate, <0.5 slight or no activity; for EC50: read-out: ED50 (the source's name)
Excerpt: as §1

Ad-2 = test: Antiviral activity (virus rating method); assay type: cell-based
Excerpt: as §1

HSV-1 = test: Antiviral activity (virus rating method); assay type: cell-based; conditions: for Virus Rating: >1.0 definite, 0.5-0.9 moderate, <0.5 slight or no activity; for EC50: read-out: ED50 (the source's name)
Excerpt: as §1

HSV-2 = test: Antiviral activity (virus rating method); assay type: cell-based; conditions: for Virus Rating: >1.0 definite, 0.5-0.9 moderate, <0.5 slight or no activity; for EC50: read-out: ED50 (the source's name)
Excerpt: as §1

Reo 3 = test: Antiviral activity (virus rating method); assay type: cell-based; conditions: for Virus Rating: >1.0 definite, 0.5-0.9 moderate, <0.5 slight or no activity; for EC50: read-out: ED50 (the source's name)
Excerpt: as §1

Measles = test: Antiviral activity (virus rating method); assay type: cell-based; conditions: for Virus Rating: >1.0 definite, 0.5-0.9 moderate, <0.5 slight or no activity; for EC50: Measles morbillivirus, read-out: ED50 (the source's name)
Excerpt: as §1

Cox B4 = test: Antiviral activity (virus rating method); assay type: cell-based; conditions: for Virus Rating: >1.0 definite, 0.5-0.9 moderate, <0.5 slight or no activity
Excerpt: as §1

Lewis lung carcinoma = test: Antitumor activity against Lewis lung carcinoma, Example 12 (Table 1); assay type: in vivo, B6 D2 F1 male mice; conditions: for Treated Group Survival Time: median, control 19.0, 60-day test
Experimental: As illustrative examples of the antitumor use of COMPOUNDS 1 and 2, Examples 12 through 14, below, are given. […] The tests utilized in these illustrative examples were conducted by the Developmental Therapeutics Program, Division of Cancer Treatment, National Cancer Institute. The tests were supervised by this agency utilizing their standard protocols and procedures. All tests conformed to these protocols and all tests were evaluated under the criteria defined by these protocols. The following representative examples illustrate confirmed activity of the illustrative compounds of the invention against screening tumor systems of the National Cancer Institute.
For purposes of the following examples, the abbreviation IP stands for intraperitoneal and IV stands for intravenous. The mean and median survival times are calculated in instruction 14 (revised 6/78) of the Screening Data Summary, Developmental Therapeutics Program, Division of Cancer Treatment, National Cancer Institute. The contents of this Screening Data Summary including appropriate revisions are herein incorporated by reference.
In the illustrated examples below, the vehicle used as carrier for the drug was injected (minus any drug therein) into the control animals at the same level of use of the vehicle in the drug treated animals in order to eliminate any vehicle effect of the tests.
For example 12, B6 D2 F1 male mice were used and challenged with Lewis lung carcinoma. The median survival time of the test animals was compared to that of appropriate control animals.
In Example 12, forty control animals and ten test animals were used, each at dose levels indicated below in Table 1. For both the control group and the drug treated group, tumors were induced by IV injection on day zero followed by initiation of drug treatment on day one. For Example 12 water was used as the drug vehicle.
In both the control group and the drug treated group in Example 12, the animals were inoculated on day zero with a homogenate of 10^6 seed cells of Lewis lung carcinoma. For Example 12, drug treatment was started on day one and COMPOUND 1 given once daily for nine days. Day five was utilized as the cut-off date for deaths attributable to toxicity of the drug. […] Efficacy of treatment was determined by comparing median survival time of the control animals and is expressed as percentage increase of treated animals/control animals (T/C).
The test period was for sixty days and at the end of the sixty day period all animals surviving in the test groups were evaluated as either cured, no-takes, or tumor survivors.
In this example, the drug tested animals were injected IP with the dose level noted in Table I below. Ten animals were treated at each dose level. No control animals survived beyond day 23 with a median death rate of day 19.0.

DNA and RNA viruses = test: Antiviral activity against the DNA and RNA virus panel; assay type: cell-based
Excerpt: as §1

Vero cells = test: Toxicity to Vero cells; conditions: 1000 ug/ml (highest concentration tested)
[1] = HeLa, read-out: ED50 (the source's name)
[2] = 3 mg/kg IP once daily for nine days
[3] = 6 mg/kg IP once daily for nine days
[4] = 9 mg/kg IP once daily for nine days
[5] = 13 mg/kg IP once daily for nine days
[6] = 20 mg/kg IP once daily for nine days
[7] = 33 mg/kg IP once daily for nine days
[8] = 50 mg/kg IP once daily for nine days
[9] = 75 mg/kg IP once daily for nine days

## NC(=O)c1c[se]c([C@@H]2O[C@H](CO)[C@@H](O)[C@H]2O)n1 [COMPOUND 1, 2-β-D-ribofuranosylselenazole-4-carboxamide]
MRC-5 cells
  toxicity to cells: non-toxic
Cox B1; HeLa cells, Picornaviridae (Cox B1)
  antiviral activity in words: Excellent antiviral activity
Cox B1; HeLa
  Virus Rating: 1.8
  EC50: 10 µg/mL (≈ 32.6 µM)
Cox B1; Vero
  Virus Rating: 1.7
  EC50: 15 µg/mL (≈ 48.8 µM)
Para 3; HeLa
  Virus Rating: 2.2
  EC50: 1 µg/mL (≈ 3.26 µM)
Para 3; Para-3, depending upon cell line
  type of antiviral activity: virusstatic
Para 3; Vero
  Virus Rating: 2.6
  EC50: 1 µg/mL (≈ 3.26 µM)
Mumps; HeLa
  Virus Rating: 1.0
  EC50: 1 µg/mL (≈ 3.26 µM)
Mumps; Vero
  Virus Rating: 1.7
  EC50: 5 µg/mL (≈ 16.3 µM)
VV; HeLa
  Virus Rating: 2.4
  EC50: 2 µg/mL (≈ 6.51 µM)
VV; Vaccinia, depending upon cell line
  type of antiviral activity: virucidal
VV; Vero
  Virus Rating: 2.1
  EC50: 3 µg/mL (≈ 9.77 µM)
Ad-2; HeLa cells, Adenoviridae (Adeno-2)
  antiviral activity in words: Excellent antiviral activity
Ad-2; HeLa, >1.0 definite, 0.5-0.9 moderate, <0.5 slight or no activity
  Virus Rating: 1.9
Ad-2; [1]
  EC50: 9 µg/mL (≈ 29.3 µM)
HSV-1; HSV-1, depending upon cell line
  type of antiviral activity: virusstatic
HSV-1; HeLa
  Virus Rating: 1.4
HSV-1; Human alphaherpesvirus 1, HeLa
  EC50: 2 µg/mL (≈ 6.51 µM)
HSV-1; Human alphaherpesvirus 1, Vero
  EC50: 30 µg/mL (≈ 97.7 µM)
HSV-1; Vero
  Virus Rating: 1.2
HSV-2; HeLa
  Virus Rating: 1.5
HSV-2; Human alphaherpesvirus 2, HeLa
  EC50: 4 µg/mL (≈ 13 µM)
HSV-2; Human alphaherpesvirus 2, Vero
  EC50: 10 µg/mL (≈ 32.6 µM)
HSV-2; Vero
  Virus Rating: 1.5
Reo 3; HeLa
  Virus Rating: 2.7
  EC50: 8 µg/mL (≈ 26 µM)
Reo 3; Vero
  Virus Rating: 1.8
  EC50: 1 µg/mL (≈ 3.26 µM)
Measles; HeLa
  Virus Rating: 1.8
  EC50: 2 µg/mL (≈ 6.51 µM)
Measles; Vero
  EC50: 1 µg/mL (≈ 3.26 µM)
  Virus Rating: 2.0
Cox B4; HeLa cells, Picornaviridae (Cox B4)
  antiviral activity in words: Excellent antiviral activity
Cox B4; HeLa
  Virus Rating: 2.3
Cox B4; [1]
  EC50: 6 µg/mL (≈ 19.5 µM)
Cox B4; Vero, read-out: ED50
  EC50: 1000 µg/mL (≈ 3260 µM)
Cox B4; Vero
  Virus Rating: 0.0
Lewis lung carcinoma; [2]
  Cures: One and 1/10
  Percent Treated Animal/Control Animal (T/C): 152%
  Treated Group Survival Time: 28.9
Lewis lung carcinoma; [3]
  Cures: 1/10
  Treated Group Survival Time: 12.0
Lewis lung carcinoma; [4]
  Cures: 3/10
  Treated Group Survival Time: 10.4
Lewis lung carcinoma; [5]
  Cures: 5 out of 10 and 5/10
  Percent Treated Animal/Control Animal (T/C): 315%
  Treated Group Survival Time: 60.0
Lewis lung carcinoma; [6]
  Cures: 2/10
  Treated Group Survival Time: 16.0
Lewis lung carcinoma; [7]
  Cures: 3/10
  Percent Treated Animal/Control Animal (T/C): 94%
  Treated Group Survival Time: 18.0
Lewis lung carcinoma; [8]
  Cures: 1/10
  Percent Treated Animal/Control Animal (T/C): 94%
  Treated Group Survival Time: 18.0
Lewis lung carcinoma; [9]
  Cures: 7 out of 10 and 7/10
  Percent Treated Animal/Control Animal (T/C): 315%
  Treated Group Survival Time: 60.0
Lewis lung carcinoma; 75 and 13 mg/kg IP
  survival of treated animals in words: all of the treated animals survived
Lewis lung carcinoma; Lewis lung carcinoma, mice
  antitumor activity in words: active against Lewis lung carcinoma; also recorded: outstanding activity against Lewis lung carcinoma
Lewis lung carcinoma; cut-off day five, 3-75 mg/kg IP once daily
  mortality attributable to drug toxicity: no mortality attributable to drug toxicity
Lewis lung carcinoma; mouse, in vivo
  DN2 criteria of NCI: successfully passed the DN (decision network) 2 criteria; also recorded: DN2 criteria of NCI were passed
DNA and RNA viruses; DNA and RNA viruses, Vero or HeLa cells
  antiviral activity in words: showed activity against both small and large viruses of both DNA and RNA types; also recorded: good broad spectrum antiviral activity against both DNA and RNA viruses
DNA and RNA viruses; cell culture, representative viruses
  inhibition of viral cytopathic effects in words: inhibits viral cytopathic effects in cell culture for representative viruses at extremely low dosage
Vero cells
  toxicity to cells: non-toxic
